Assay results from patent publication US10364226B2, “Pyridazinone compounds and uses thereof” (priority 2013, dated 2019).

Key:
[1] = tested on: Influenza strain A549 A/WSN/33 (H1N1); test: Influenza Antiviral Assay; format: cell-based, Influenza A virus; details: Influenza A virus, A549, 20 h, neuraminidase fluorescence readout, read-out: % Inhibition
EN PA = EN PA (Influenza A virus, UniProt P15659); test: EN PA FRET Inhibition Assay; format: biochemical; details: read-out: Potency

CNC(=O)c1nn(CCC2c3ccccc3CCc3ccccc32)cc(O)c1=O [Compound 839]
EC50 [1]: > 100 µM | IC50 (EN PA): 0.1 to 1 µM

O=C1NCCCCCOc2ccc(cc2)C2(CCCC2)Cn2cc(O)c(=O)c1n2 [Compound 873]
EC50 [1]: > 100 µM | IC50 (EN PA): 0.1 to 1 µM

CNC(=O)c1nn(CC2(c3ccc(C(C)C)cc3)CCCC2)cc(O)c1=O [Compound 687]
EC50 [1]: < 20 µM | IC50 (EN PA): < 0.1 µM

O=C(NCc1cccnc1)c1nn(CC2(c3ccccc3)CCCC2)cc(O)c1=O [Compound 664]
EC50 [1]: > 100 µM | IC50 (EN PA): 0.1 to 1 µM

CNC(=O)c1nn(CCN2c3ccccc3C=Cc3ccccc32)cc(O)c1=O [Compound 838]
EC50 [1]: < 20 µM | IC50 (EN PA): < 0.1 µM

CNC(=O)c1nn(CC2(c3cc(F)cc(C(F)(F)F)c3)CCCC2)cc(O)c1=O [Compound 800]
EC50 [1]: < 20 µM | IC50 (EN PA): < 0.1 µM

CNC(=O)c1nn(-c2ccccc2-c2ccc3[nH]ccc3c2)cc(O)c1=O [Compound 613]
EC50 [1]: > 100 µM | IC50 (EN PA): ≥ 1 µM

CNC(=O)c1nn(CC2(n3cc(C(C)C)c4cccnc43)CCCC2)cc(O)c1=O [Compound 694]
EC50 [1]: < 20 µM | IC50 (EN PA): 0.1 to 1 µM

CNC(=O)c1nn(CCC(c2ccccc2)c2ccccc2)cc(O)c1=O [Compound 837]
EC50 [1]: > 100 µM | IC50 (EN PA): 0.1 to 1 µM

CCCc1cnc2c(ccn2C2(Cn3cc(O)c(=O)c(C(=O)NC)n3)CCCC2)c1 [Compound 755]
EC50 [1]: < 20 µM | IC50 (EN PA): < 0.1 µM

O=C(O)c1nn(-c2ccccc2C(F)(F)F)cc(O)c1=O [Compound 7]
EC50 [1]: > 100 µM | IC50 (EN PA): 0.1 to 1 µM

CNC(=O)c1nn(CC2(c3cccc4c3cnn4C)CCCC2)cc(O)c1=O [Compound 881]
EC50 [1]: < 20 µM | IC50 (EN PA): < 0.1 µM

CNC(=O)c1nn(CC2(c3ccccc3)CC(C)(C)C2)cc(O)c1=O [Compound 778]
EC50 [1]: 20 to 100 µM | IC50 (EN PA): < 0.1 µM

CNC(=O)c1nn(CC2(n3cc(C)c4cccnc43)CCC2)cc(O)c1=O [Compound 814]
EC50 [1]: < 20 µM | IC50 (EN PA): < 0.1 µM

CONC(=O)c1nn(CC2(n3cc(C)c4cccnc43)CCCC2)cc(O)c1=O [Compound 854]
EC50 [1]: < 20 µM | IC50 (EN PA): < 0.1 µM

Cc1c(O)c(=O)c(C(=O)O)nn1CCc1ccccc1 [Compound 782]
EC50 [1]: > 100 µM | IC50 (EN PA): < 0.1 µM

CNC(=O)c1nn(CC2(c3ccc4ncccc4c3)CCCC2)cc(O)c1=O [Compound 845]
EC50 [1]: < 20 µM | IC50 (EN PA): < 0.1 µM

CNC(=O)c1nn(CC2(n3ccc4c(C)ccnc43)CCCC2)cc(O)c1=O [Compound 864]
EC50 [1]: < 20 µM | IC50 (EN PA): < 0.1 µM

O=C(NCc1ccc(Cl)cc1)c1nn(CC2(c3cccc(C(F)(F)F)c3)CCCC2)cc(O)c1=O [Compound 523]
EC50 [1]: < 20 µM | IC50 (EN PA): 0.1 to 1 µM

O=C(O)c1nn(-c2ccccc2-c2ccc3[nH]ccc3c2)cc(O)c1=O [Compound 320]
EC50 [1]: > 100 µM | IC50 (EN PA): 0.1 to 1 µM

O=C(O)c1nn(CC2(c3cccc(C(F)(F)F)c3)CC2)cc(O)c1=O [Compound 424]
EC50 [1]: 20 to 100 µM | IC50 (EN PA): 0.1 to 1 µM

O=C(Nc1ccccc1)c1nn(CC2(c3cccc(C(F)(F)F)c3)CCCC2)cc(O)c1=O [Compound 517]
EC50 [1]: < 20 µM | IC50 (EN PA): 0.1 to 1 µM

CNC(=O)c1nn(CC2(c3cc(Cl)cc(C(F)(F)F)c3)CCCC2)cc(O)c1=O [Compound 768]
EC50 [1]: < 20 µM | IC50 (EN PA): < 0.1 µM

Cc1cn(C2(Cn3cc(O)c(=O)c(C(=O)NCC4(CO)CCCC4)n3)CCCC2)c2ncccc12 [Compound 822]
EC50 [1]: < 20 µM | IC50 (EN PA): < 0.1 µM

CC1(C)CCC(Cn2cc(O)c(=O)c(C(=O)O)n2)(c2ccccc2)C1 (stereo not shown) [Compound 786]
EC50 [1]: > 100 µM | IC50 (EN PA): < 0.1 µM

Cc1cn(C2(Cn3cc(O)c(=O)c(C(=O)NCC(C)(C)CO)n3)CCCC2)c2ncccc12 [Compound 823]
EC50 [1]: < 20 µM | IC50 (EN PA): < 0.1 µM

O=C(O)c1nn(-c2ccccc2N2CCCC2Cc2ccccc2)cc(O)c1=O (stereo not shown) [Compound 203]
EC50 [1]: 20 to 100 µM | IC50 (EN PA): 0.1 to 1 µM

C=Cc1ccc(C2(Cn3cc(O)c(=O)c(C(=O)NC)n3)CCCC2)cc1 [Compound 762]
EC50 [1]: < 20 µM | IC50 (EN PA): < 0.1 µM

CNC(=O)c1nn(CC2(n3c4c(c5ccccc53)CCC4)CCCC2)cc(O)c1=O [Compound 891]
EC50 [1]: < 20 µM | IC50 (EN PA): < 0.1 µM

CNC(=O)c1nn(CC2(n3cnc4cncnc43)CCCC2)cc(O)c1=O [Compound 855]
EC50 [1]: > 100 µM | IC50 (EN PA): 0.1 to 1 µM

CNC(=O)c1nn(CC2(n3cc(C)c4cccnc43)CCCC2)cc(O)c1=O [Compound 622]
EC50 [1]: < 20 µM | IC50 (EN PA): 0.1 to 1 µM

NC(=O)c1nn(CC2(c3cccc(C(F)(F)F)c3)CC2)cc(O)c1=O [Compound 626]
EC50 [1]: 20 to 100 µM | IC50 (EN PA): 0.1 to 1 µM

CNC(=O)c1nn(CC2(c3ccc4cnccc4c3)CCCC2)cc(O)c1=O [Compound 844]
EC50 [1]: < 20 µM | IC50 (EN PA): < 0.1 µM

CCn1cc(CNC(=O)c2nn(CC3(c4cccc(C(F)(F)F)c4)CCCC3)cc(O)c2=O)cn1 [Compound 650]
EC50 [1]: < 20 µM | IC50 (EN PA): < 0.1 µM

Cc1cn(C2(Cn3cc(O)c(=O)c(C(=O)NCC(C)C)n3)CCCC2)c2ncccc12 [Compound 821]
EC50 [1]: < 20 µM | IC50 (EN PA): < 0.1 µM

CC(C)(CO)NC(=O)c1nn(CC2(n3cc(Cl)c4cccnc43)CCCC2)cc(O)c1=O [Compound 866]
EC50 [1]: < 20 µM | IC50 (EN PA): < 0.1 µM

CCNC(=O)c1nn(CC2(n3cc(Cl)c4cccnc43)CCCC2)cc(O)c1=O [Compound 753]
EC50 [1]: < 20 µM | IC50 (EN PA): < 0.1 µM

CNC(=O)c1nn(CC2(c3ccc4cccnc4c3)CCCC2)cc(O)c1=O [Compound 849]
EC50 [1]: < 20 µM | IC50 (EN PA): < 0.1 µM

CNC(=O)c1nn(CC2(n3cc(C)c4cccnc43)CCCC2)cc(OC(=O)OCC(C)C)c1=O [Compound 764]
EC50 [1]: < 20 µM | IC50 (EN PA): < 0.1 µM

Cc1cn(C2(Cn3cc(O)c(=O)c(C(=O)NC4CC4)n3)CCCC2)c2ncccc12 [Compound 661]
EC50 [1]: < 20 µM | IC50 (EN PA): < 0.1 µM

CNC(=O)c1nn(CC2(n3ccc4cc(F)ccc43)CCCC2)cc(O)c1=O [Compound 816]
EC50 [1]: < 20 µM | IC50 (EN PA): < 0.1 µM

CNC(=O)c1nn(-c2ccccc2S(=O)(=O)c2ccccc2)cc(O)c1=O [Compound 603]
EC50 [1]: > 100 µM | IC50 (EN PA): ≥ 1 µM

O=C(O)c1nn(-c2cc(C(F)(F)F)cc(C(F)(F)F)c2)cc(O)c1=O [Compound 20]
EC50 [1]: > 100 µM | IC50 (EN PA): 0.1 to 1 µM

O=C(NC1CCCCC1)c1nn(CC2(c3cccc(C(F)(F)F)c3)CCCC2)cc(O)c1=O [Compound 516]
EC50 [1]: < 20 µM | IC50 (EN PA): 0.1 to 1 µM

CNC(=O)c1nn(CC2(c3ccc(-c4ccccc4)cc3)CCCC2)cc(O)c1=O [Compound 686]
EC50 [1]: < 20 µM | IC50 (EN PA): 0.1 to 1 µM

CNC(=O)c1nn(-c2ccccc2-c2ccc(CC(C)C)cc2)cc(O)c1=O [Compound 501]
EC50 [1]: < 20 µM | IC50 (EN PA): ≥ 1 µM

CC(C)(C)NC(=O)c1nn(CC2(c3ccc4ccccc4c3)CCCC2)cc(O)c1=O [Compound 829]
EC50 [1]: < 20 µM | IC50 (EN PA): < 0.1 µM

CNC(=O)c1nn(CC2(n3c(C)cc4cccnc43)CCCC2)cc(O)c1=O [Compound 790]
EC50 [1]: < 20 µM | IC50 (EN PA): < 0.1 µM

O=C(NCc1cnn(-c2ccc(F)cc2)c1)c1nn(CC2(c3cccc(C(F)(F)F)c3)CCCC2)cc(O)c1=O [Compound 649]
EC50 [1]: < 20 µM | IC50 (EN PA): < 0.1 µM

CNC(=O)c1nn(CC2(c3ccc4ccccc4n3)CCCC2)cc(O)c1=O [Compound 843]
EC50 [1]: < 20 µM | IC50 (EN PA): < 0.1 µM

O=C(O)c1nn(CCc2ccccc2C(F)(F)F)cc(O)c1=O [Compound 400, 1-(2-(trifluoromethyl)phenethyl)-1,4-dihydro-5-hydroxv-4-oxopyridazine-3-carboxylic acid]
EC50 [1]: > 100 µM | IC50 (EN PA): < 0.1 µM

O=C(O)c1nn(-c2ccccc2-c2ccccc2)cc(O)c1=O [Compound 18]
EC50 [1]: > 100 µM | IC50 (EN PA): 0.1 to 1 µM

CCNC(=O)c1nn(CC2(n3cc(C)c4cccnc43)CCCC2)cc(O)c1=O [Compound 741]
EC50 [1]: < 20 µM | IC50 (EN PA): < 0.1 µM

O=C(O)c1nn(CCc2cccc(C(F)(F)F)c2)cc(O)c1=O [Compound 412]
EC50 [1]: > 100 µM | IC50 (EN PA): < 0.1 µM

CC(C)(C)NC(=O)c1nn(CC2(n3cc(Cl)c4cccnc43)CCCC2)cc(O)c1=O [Compound 766]
EC50 [1]: < 20 µM | IC50 (EN PA): < 0.1 µM

O=C(c1nn(CC2(c3cccc(C(F)(F)F)c3)CCCC2)cc(O)c1=O)N1CCC(F)(F)C1 [Compound 502]
EC50 [1]: < 20 µM | IC50 (EN PA): ≥ 1 µM

CNC(=O)c1nn(CC2(n3cc(C)c4cccnc43)CCCC2)cc(OC(C)=O)c1=O [Compound 662]
EC50 [1]: < 20 µM | IC50 (EN PA): < 0.1 µM

O=C(O)c1nn(CC2(c3cccc(Br)c3)CCCC2)cc(O)c1=O [Compound 683]
EC50 [1]: > 100 µM | IC50 (EN PA): < 0.1 µM

O=C(NCc1ccccc1)c1nn(CC2(c3cccnc3)CCCC2)cc(O)c1=O [Compound 807]
EC50 [1]: < 20 µM | IC50 (EN PA): < 0.1 µM

CNC(=O)c1nn(CC2(n3ccc4cccnc43)CCCC2)cc(O)c1=O [Compound 609]
EC50 [1]: < 20 µM | IC50 (EN PA): < 0.1 µM

O=C(NC1CC1)c1nn(CC2(n3cc(C(F)(F)F)c4cccnc43)CCCC2)cc(O)c1=O [Compound 682]
EC50 [1]: < 20 µM | IC50 (EN PA): < 0.1 µM

CCc1ccc(C2(Cn3cc(O)c(=O)c(C(=O)NC)n3)CCCC2)cc1 [Compound 747]
EC50 [1]: < 20 µM | IC50 (EN PA): < 0.1 µM

CCNC(=O)c1nn(CC2(c3ccc4ccccc4c3)CCCC2)cc(O)c1=O [Compound 828]
EC50 [1]: < 20 µM | IC50 (EN PA): < 0.1 µM

CNC(=O)c1nn(CC2(n3cc(OC)c4cccnc43)CCCC2)cc(O)c1=O [Compound 892]
EC50 [1]: < 20 µM | IC50 (EN PA): < 0.1 µM

O=C(O)c1nn(Cc2ccccc2)cc(O)c1=O [Compound 409]
EC50 [1]: > 100 µM | IC50 (EN PA): 0.1 to 1 µM

CNC(=O)c1nn(CCn2c3ccccc3c3ccccc32)cc(O)c1=O [Compound 835]
EC50 [1]: > 100 µM | IC50 (EN PA): 0.1 to 1 µM

O=C(NCc1ccccc1)c1nn(CC2(c3ccc(F)c(F)c3)CCCC2)cc(O)c1=O [Compound 812]
EC50 [1]: < 20 µM | IC50 (EN PA): < 0.1 µM

CNC(=O)c1nn(CC2(c3cc(F)c4ncccc4c3)CCCC2)cc(O)c1=O [Compound 847]
EC50 [1]: > 100 µM | IC50 (EN PA): < 0.1 µM
